The experiment relates to Ps. aeruginosa, CL 5701. The experiment is described as follows: Imipenem MIC against Ps. aeruginosa CL 5701. The format is cell-based. To be noted: Pseudomonas aeruginosa, CL5701, imipenem alone. From the text: The assay determines the concentration of a β-lactamase inhibitor required to reduce the MIC of a β-lactam antibiotic by one-half, one-quarter, one-eighth, one-sixteenth and one-thirty-second against strains of bacteria normally resistant to the antibiotic in question. This is accomplished by titrating the inhibitor (BLI=beta-lactamase inhibitor) in a serial dilution across a microtiter plate while at the same time titrating the antibiotic (AB) in a serial dilution down the microtiter plate and then inoculating the plate with the bacterial strain in question and allowing the bacteria to grow up overnight. Each well in this microplate checkerboard contains a different combination of concentrations of the inhibitor and the antibiotic allowing a full determination of any synergy between the two.
• 1. All wells in rows B-H of MIC 2000 microtiter plates are filled with 100 μL of MHBII+1% DMSO (dimethyl sulfoxide). • 2. All wells in row A of MIC 2000 microtiter plates are filled with 100 μL of 2×MHBII+2% DMSO. • 3. […] Plates are left at 37° C. for about 20 hours and scored for growth by eye. […]
Plates are scored for growth in each well. End points (MICs) where there is no growth in each row are determined and the concentrations of AB and the test BLI at each of these growth negative wells are then used to determine levels of synergy. […]

`C[C@@H](O)[C@H]1C(=O)N2C(C(=O)O)=C(SCCN=CN)C[C@H]12` [Imipenem]: the minimal inhibitory concentration (MIC) (in general, the lowest concentration that inhibits growth of the organism) was found to be 20 µg/mL.
